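Five compound concentrations were applied to cells in 96-well plates for 48 hours; endpoints were derived by simple linear interpolation of the resulting dose-response curve. At the GI50, growth is halved.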 The source made the active and inactive calls. Rule as the data show it: active = GI50 up to about 1.1 µM and inactive = higher.
Tests used:
Experiment in all cases: NCI tumour cell line growth inhibition, 48 h
A498 = system: A498
MCF7 = system: MCF7
OVCAR-4 = system: OVCAR-4
MDA-MB-231 = system: MDA-MB-231
HCT-116 = system: HCT-116
SR = system: SR
NCI/ADR-RES = system: NCI/ADR-RES
OVCAR-3 = system: OVCAR-3
PC-3 = system: PC-3
HOP-62 = system: HOP-62
SW-620 = system: SW-620
SF-295 = system: SF-295
NCI-H226 = system: NCI-H226
UACC-62 = system: UACC-62
T47D = system: T47D
UACC-257 = system: UACC-257
SNB-75 = system: SNB-75
U-251 = system: U-251
SK-MEL-28 = system: SK-MEL-28
SN12C = system: SN12C

SMILES | GI50 (A498) | GI50 (MCF7) | GI50 (OVCAR-4) | GI50 (MDA-MB-231) | GI50 (HCT-116) | GI50 (SR) | GI50 (NCI/ADR-RES) | GI50 (OVCAR-3) | GI50 (PC-3) | GI50 (HOP-62) | GI50 (SW-620) | GI50 (SF-295) | GI50 (NCI-H226) | GI50 (UACC-62) | GI50 (T47D) | GI50 (UACC-257) | GI50 (SNB-75) | GI50 (U-251) | GI50 (SK-MEL-28) | GI50 (SN12C)
O=C(Nc1sccc1S(=O)(=O)c1ccc(Cl)cc1)c1ccccc1 | > 100 µM (inactive) | > 100 µM (inactive) | 45 µM (inactive) | > 100 µM (inactive) | > 100 µM (inactive) | > 100 µM (inactive) | > 100 µM (inactive) | > 100 µM (inactive) | > 100 µM (inactive) | 87.9 µM (inactive) | > 100 µM (inactive) | > 100 µM (inactive) | > 100 µM (inactive) | > 100 µM (inactive) | > 100 µM (inactive) | 85.1 µM (inactive) | 98.6 µM (inactive) | > 100 µM (inactive) | > 100 µM (inactive) | > 100 µM (inactive)
CN(C)c1ccc(/C=N/c2nc3cc4sc(/N=C/c5ccc(N(C)C)cc5)nc4cc3s2)cc1 | 26.7 µM (inactive) | 12.6 µM (inactive) | > 100 µM (inactive) | > 100 µM (inactive) | 30.5 µM (inactive) | 29.4 µM (inactive) | > 100 µM (inactive) | 36.9 µM (inactive) | > 100 µM (inactive) | 55.7 µM (inactive) | 33.9 µM (inactive) | > 100 µM (inactive) | 33.3 µM (inactive) | > 100 µM (inactive) | 42.5 µM (inactive) | > 100 µM (inactive) | 63.2 µM (inactive) | 50.5 µM (inactive) | > 100 µM (inactive) | 83.9 µM (inactive)
CCOC(=O)c1c(SCCN(CC)CC)n(-c2ccccc2)c(=S)n(-c2ccccc2)c1=O | 15.2 µM (inactive) | 1.27 µM (inactive) | 9.66 µM (inactive) | 3.33 µM (inactive) | 3.87 µM (inactive) | 0.714 µM (active) | 32.1 µM (inactive) | 1.84 µM (inactive) | 2.05 µM (inactive) | 17.3 µM (inactive) | 2.74 µM (inactive) | 34.2 µM (inactive) | 21.5 µM (inactive) | 4.61 µM (inactive) | 2.55 µM (inactive) | 2.28 µM (inactive) | 8.81 µM (inactive) | 15.6 µM (inactive) | 2.62 µM (inactive) | 1.91 µM (inactive)
COc1ccc2c(c1)/C(=C(\C(Cl)=C(\Cl)N1CCCCC1)[N+](=O)[O-])N2 | > 100 µM (inactive) | > 100 µM (inactive) | 87.5 µM (inactive) | > 100 µM (inactive) | > 100 µM (inactive) | 27.1 µM (inactive) | > 100 µM (inactive) | 42.5 µM (inactive) | > 100 µM (inactive) | > 100 µM (inactive) | 71 µM (inactive) | 80.5 µM (inactive) | 29.6 µM (inactive) | > 100 µM (inactive) | > 100 µM (inactive) | > 100 µM (inactive) | > 100 µM (inactive) | > 100 µM (inactive) | > 100 µM (inactive) | > 100 µM (inactive)
CCOC(=O)Cn1c(C(F)(F)F)nc2nc(Cl)c(Cl)nc21 | 25.5 µM (inactive) | 23.3 µM (inactive) | 15.2 µM (inactive) | 58.9 µM (inactive) | 38.9 µM (inactive) | 24.2 µM (inactive) | 50.2 µM (inactive) | 16.3 µM (inactive) | 32.2 µM (inactive) | 19.5 µM (inactive) | 54 µM (inactive) | 29 µM (inactive) | 50 µM (inactive) | 24.7 µM (inactive) | 33.3 µM (inactive) | 19.6 µM (inactive) | 55.2 µM (inactive) | 33.5 µM (inactive) | 48.9 µM (inactive) | 49.4 µM (inactive)
CN(C(=O)C1=CCC2(CC1)OCCO2)c1ccccc1I | > 100 µM (inactive) | > 100 µM (inactive) | > 100 µM (inactive) | > 100 µM (inactive) | > 100 µM (inactive) | > 100 µM (inactive) | > 100 µM (inactive) | > 100 µM (inactive) | > 100 µM (inactive) | > 100 µM (inactive) | > 100 µM (inactive) | > 100 µM (inactive) | > 100 µM (inactive) | > 100 µM (inactive) | > 100 µM (inactive) | > 100 µM (inactive) | > 100 µM (inactive) | > 100 µM (inactive) | > 100 µM (inactive) | > 100 µM (inactive)
CCOC1C=CC(=O)C(CO)O1 (stereo not given) | 26.2 µM (inactive) | 4.68 µM (inactive) | 8.97 µM (inactive) | 17.3 µM (inactive) | 5.12 µM (inactive) | 1.99 µM (inactive) | 14.9 µM (inactive) | 6.73 µM (inactive) | 13.8 µM (inactive) | 13.2 µM (inactive) | 9.23 µM (inactive) | 17.9 µM (inactive) | 24 µM (inactive) | 12.4 µM (inactive) | 8.81 µM (inactive) | 5.86 µM (inactive) | 15.3 µM (inactive) | 12.7 µM (inactive) | 16.9 µM (inactive) | 13.3 µM (inactive)
FC(F)(F)c1ccccc1N1CCN(c2nc(-c3cccs3)nc3ccc(Br)cc23)CC1 | 71.3 µM (inactive) | 1.06 µM (active) | 5.16 µM (inactive) | 21 µM (inactive) | 33.2 µM (inactive) | 31.6 µM (inactive) | 41.8 µM (inactive) | 10.9 µM (inactive) | 11.7 µM (inactive) | 50.4 µM (inactive) | 38.6 µM (inactive) | 30.3 µM (inactive) | 30.8 µM (inactive) | 23 µM (inactive) | 2.37 µM (inactive) | 37.6 µM (inactive) | 24.9 µM (inactive) | 44.4 µM (inactive) | 35.8 µM (inactive) | 45.8 µM (inactive)
Cc1c2cc[n+](C)cc2c(C)c2c1sc1ccccc12 | 1.45 µM (inactive) | 1.3 µM (inactive) | 3.4 µM (inactive) | 2.39 µM (inactive) | 3.63 µM (inactive) | 0.246 µM (active) | 18.9 µM (inactive) | 1.29 µM (inactive) | 1.48 µM (inactive) | 0.452 µM (active) | 0.553 µM (active) | 0.143 µM (active) | 0.383 µM (active) | 1.63 µM (inactive) | 0.798 µM (active) | 1.94 µM (inactive) | 0.199 µM (active) | 0.114 µM (active) | 2.45 µM (inactive) | 0.132 µM (active)
COC(=O)[C@]12CC=C3O[C@@H]4OC5(CCCCC5)O[C@@H]4[C@H]3C1C(=O)C=CC2=O (stereo not given in full) | 17.9 µM (inactive) | 16 µM (inactive) | 17.1 µM (inactive) | 16.8 µM (inactive) | 17.5 µM (inactive) | 22.3 µM (inactive) | 18.1 µM (inactive) | 8.81 µM (inactive) | 24.9 µM (inactive) | 21 µM (inactive) | 15.9 µM (inactive) | 24.6 µM (inactive) | 18.6 µM (inactive) | 16 µM (inactive) | 17.1 µM (inactive) | 16.3 µM (inactive) | 18.8 µM (inactive) | 18.7 µM (inactive) | 18.9 µM (inactive) | 18.4 µM (inactive)

Reference: ChEMBL document CHEMBL1201862, “PubChem BioAssay data set” (2004)
